Test results taken from PubChem BioAssay (NCI).
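Grown in 96-well plates, cells were treated for 48 hours with each compound at five concentrations. Insufficient inhibition: endpoint recorded as highest concentration tested. At the GI50, growth is halved. At the TGI there is no net growth.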

Tests used:
Test in all cases: NCI tumour cell line growth inhibition, 48 h
IGROV1 ovarian = system: IGROV1 ovarian
KM12 colon = system: KM12 colon
SF-539 CNS = system: SF-539 CNS
OVCAR-5 ovarian = system: OVCAR-5 ovarian
RPMI-8226 leukemia = system: RPMI-8226 leukemia
HL-60(TB) leukemia = system: HL-60(TB) leukemia
K-562 leukemia = system: K-562 leukemia
DMS 114 small cell lung = system: DMS 114 small cell lung
T-47D breast = system: T-47D breast
LXFL 529 NSCLC = system: LXFL 529 NSCLC

SMILES	TGI (IGROV1 ovarian)	TGI (KM12 colon)	TGI (SF-539 CNS)	TGI (OVCAR-5 ovarian)	TGI (RPMI-8226 leukemia)	TGI (HL-60(TB) leukemia)	TGI (K-562 leukemia)	TGI (DMS 114 small cell lung)	TGI (T-47D breast)	TGI (LXFL 529 NSCLC)	GI50 (IGROV1 ovarian)	GI50 (KM12 colon)	GI50 (SF-539 CNS)	GI50 (OVCAR-5 ovarian)	GI50 (RPMI-8226 leukemia)	GI50 (HL-60(TB) leukemia)	GI50 (LXFL 529 NSCLC)	GI50 (K-562 leukemia)	GI50 (DMS 114 small cell lung)	GI50 (T-47D breast)
Nc1ncnc2c1nc(Cl)n2C1OC2COP(=O)(O)OC2C1O (centres undefined)	> 300 µM	> 300 µM	> 300 µM	> 283 µM	> 300 µM	> 209 µM	> 300 µM	> 300 µM	> 300 µM											
CCC/C(=N/NC(=O)C(N)=O)C(CC)C(=O)CCC(=O)N(Cc1ccccc1)Cc1ccccc1 (centres undefined)	> 100 µM	> 100 µM	> 100 µM	> 100 µM	> 100 µM	> 100 µM	> 100 µM	> 100 µM		> 100 µM										
O=c1cc2ccccc2nn1Cc1cccc(Cl)c1	> 100 µM	> 100 µM	> 100 µM	> 100 µM	> 100 µM		> 100 µM	> 100 µM												
CC1(CO)OC(n2cc(C(=O)NC(=O)OCc3ccccc3)c(=O)[nH]c2=O)CC1O (centres undefined)	> 100 µM	> 100 µM	> 100 µM		> 100 µM	> 100 µM	> 100 µM	> 100 µM		> 100 µM										
CC(=O)[CH-]C(=O)c1ccccc1.CC(=O)[CH-]C(=O)c1ccccc1.CC1(C)C2CCC1(C)C([O-])C2.CC1(C)C2CCC1(C)C([O-])C2.[Ti+4]	85.8 µM	> 100 µM	45.9 µM	> 100 µM	> 100 µM	> 100 µM	> 100 µM			> 100 µM	25.3 µM	34.8 µM	17.8 µM	> 100 µM	25 µM	23.8 µM	23.7 µM	30.5 µM		
Cc1ccccc1C(=O)c1ccccc1O	> 100 µM	> 100 µM	> 100 µM	> 100 µM		> 100 µM	> 100 µM	> 100 µM		> 100 µM										
COC(=O)N1CCc2c(nc(N(C)CCO)[nH]c2=O)C1	> 100 µM	> 100 µM	> 100 µM	> 100 µM	> 100 µM	> 100 µM	> 100 µM	> 100 µM		> 100 µM										
CN(C)c1ccc([O][Bi]([Cl])[Cl])cc1	> 100 µM	> 100 µM	> 100 µM	> 100 µM				> 100 µM			> 100 µM	> 100 µM	> 100 µM	> 100 µM					87.9 µM	
COC(=O)/C([Se]c1c(C)cc(C)cc1C)=C(\[Se]c1c(C)cc(C)cc1C)C(=O)OC	> 100 µM	> 100 µM		> 100 µM	> 100 µM	> 100 µM	> 100 µM	> 100 µM		> 100 µM										
COC(=O)C(=O)OC1(C(C)=O)CC2(c3ccccc3)OC1(c1ccccc1)c1ccccc12 (centres undefined)	41.4 µM		26.7 µM	63 µM	> 100 µM	> 100 µM	> 100 µM	32 µM		49.2 µM										
CCn1c(CN2CCN(Cc3ccccc3)CC2)nc2cc(NC(=O)c3cccs3)ccc21	80.3 µM	32 µM	28.4 µM	63.3 µM	46.1 µM	60.9 µM	87.9 µM		33.8 µM		26.5 µM	14.8 µM	14.6 µM	17 µM	15.8 µM	20.5 µM		15.1 µM		6.8 µM
Clc1ccc2c(c1)C1C(CO2)C(c2ccccc2)=NN1c1ccccc1 (centres undefined)	> 100 µM	> 100 µM		> 100 µM	47.6 µM	53.1 µM	93.8 µM	77.5 µM		> 100 µM										
Ic1ccccc1-c1ccccc1	> 100 µM	> 100 µM	> 100 µM	> 100 µM	> 100 µM	> 100 µM	> 100 µM		> 100 µM		> 100 µM	> 100 µM	> 100 µM	> 100 µM	62.7 µM	37.1 µM		> 100 µM		70.5 µM
CC1=C2C[C@H]3[C@@H](CC[C@@H]4CC(NS(C)(=O)=O)CC[C@@]43C)[C@@H]2CC[C@@]2(C1)O[C@@H]1C[C@H](C)CN[C@H]1[C@H]2C (some centres undefined)	26 µM	22.6 µM	25.9 µM	27.5 µM	29.5 µM	21.4 µM	31.6 µM		7.51 µM		11.9 µM	9.22 µM	12.9 µM	13.7 µM	7.62 µM	6.12 µM		4.25 µM		2.68 µM
CC(C)(O)CS(=O)(=O)Nc1ccc2c(c1)CCN(C(=O)COc1cccnc1)C2	> 100 µM	> 100 µM	> 100 µM	> 100 µM	> 100 µM	> 100 µM	> 100 µM		> 100 µM		> 84 µM	0.277 µM	< 0.0224 µM		0.799 µM	> 100 µM		0.0652 µM		> 35.2 µM
O=C1/C(=C/c2ccccc2)CN(C(=O)c2cccnc2)C/C1=C\c1ccccc1	9.74 µM	0.765 µM	6.19 µM	5.13 µM	1.44 µM	11.5 µM	> 100 µM		12.2 µM		2.85 µM	0.271 µM	2.14 µM	2 µM	0.318 µM	2.34 µM		0.347 µM		2.92 µM
